For this experiment, the system named is Akkermansia muciniphila BCRC 81048 strain. Kind of experiment: Prebiotic test for A. muciniphila (single candidate prebiotics, plate count). In kind it is cell-based. The note with it: 1% (w/w) candidate prebiotic in BHI medium, 48 h anaerobic incubation at 37° C.; control group = 100%. The source says:
The Akkermansia muciniphila used in the Examples described herein is the Akkermansia muciniphila BCRC 81048 strain purchased from BCRC at the Food Industry Research and Development Institute (also deposited under ATCC BAA-835). For subsequent use in the prebiotic test, the A. muciniphila strain, after thawed and activation, was inoculated at 3% and pre-cultured in BHI medium (15 g BD Difco Brain Heart Infusion broth (Thermo Fischer Scientific) dissolved in 1 L deionized water at a pH value of about 7.0) at 37° C. under an anaerobic condition (10% carbon dioxide, 10% hydrogen, and 80% nitrogen) for 48 hours.
In order to identify the nutrients beneficial to the growth of A. muciniphila, pre-cultured A. muciniphila was inoculated at 3% in BHI medium containing 1% (w/w) of the candidate prebiotics and incubated at 37° C. under anaerobic conditions for 48 hours. The bacterial culture was then spread on BHI agar plates and incubated for 72 hours for bacterial counting. The candidate prebiotic was selected from xylooligosaccharides, isomaltooligosaccharides, lactitol, inulin, fructooligosaccharides, and a banana ferment. For comparison, A. muciniphila was alternatively incubated in BHI medium without candidate prebiotics (control group).

This note sets out measurements from US20210023159A1, “METHOD FOR PROMOTING GROWTH OF AKKERMANSIA MUCINIPHILA USING MUSA FERMENTS” (TCI CO., LTD., priority 2019, published 2021).

Consider `OC[C@@H](O)[C@@H](O[C@@H]1O[C@H](CO)[C@H](O)[C@H](O)[C@H]1O)[C@H](O)[C@@H](O)CO` [lactitol], for which the “relative bacterial count of A. muciniphila” value was roughly 258%. As for inulin, the entry is “about 110%”.
